# Results taken from ChEMBL document CHEMBL1250518, “Nonsteroidal dissociated glucocorticoid agonists containing azaindoles as steroid A-ring mimetics” (J Med Chem, 2010).
# What was measured:
# Glucocorticoid receptor [1] = biological target: T1, Glucocorticoid receptor (Homo sapiens, UniProt P04150); assay: Transactivation activity at glucocorticoid receptor in human HeLa cells transfected with luciferase gene linked to MMTV promoter by luciferase assay; format: cell-based
# T1 sequence (P04150 whole entry): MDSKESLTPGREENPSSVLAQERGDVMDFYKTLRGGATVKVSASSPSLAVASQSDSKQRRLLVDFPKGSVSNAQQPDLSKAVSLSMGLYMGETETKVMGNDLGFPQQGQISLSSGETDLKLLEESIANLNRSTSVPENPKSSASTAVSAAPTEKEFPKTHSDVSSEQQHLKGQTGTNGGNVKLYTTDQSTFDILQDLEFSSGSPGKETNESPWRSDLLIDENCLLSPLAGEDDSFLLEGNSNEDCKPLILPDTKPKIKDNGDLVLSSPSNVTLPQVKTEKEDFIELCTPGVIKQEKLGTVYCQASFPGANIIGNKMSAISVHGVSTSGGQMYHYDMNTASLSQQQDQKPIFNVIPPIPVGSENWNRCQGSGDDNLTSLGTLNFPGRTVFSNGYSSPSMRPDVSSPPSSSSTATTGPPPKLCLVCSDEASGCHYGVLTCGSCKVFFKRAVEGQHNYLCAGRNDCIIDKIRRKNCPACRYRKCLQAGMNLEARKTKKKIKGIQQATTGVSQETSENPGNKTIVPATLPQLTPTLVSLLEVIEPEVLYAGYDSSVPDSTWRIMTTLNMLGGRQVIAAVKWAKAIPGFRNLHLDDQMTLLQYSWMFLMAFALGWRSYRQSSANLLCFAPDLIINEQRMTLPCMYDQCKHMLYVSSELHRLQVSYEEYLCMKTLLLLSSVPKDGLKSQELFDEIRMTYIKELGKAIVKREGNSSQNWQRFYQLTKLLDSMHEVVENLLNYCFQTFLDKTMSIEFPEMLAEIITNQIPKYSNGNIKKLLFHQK
# Glucocorticoid receptor [2] = biological target: T1, Glucocorticoid receptor; assay: Transactivation activity at glucocorticoid receptor in HFF assessed as induction of aromatase activity after 18 to 24 hrs by ELISA; format: cell-based
# Progesterone receptor = biological target: T2, Progesterone receptor (Homo sapiens, UniProt P06401); assay: Binding affinity to progesterone receptor expressed in baculovirus-infected insect cells using tetramethylrhodamine labeled RU-486 by fluorescence polarization microplate assay
# T2 sequence (P06401 whole entry): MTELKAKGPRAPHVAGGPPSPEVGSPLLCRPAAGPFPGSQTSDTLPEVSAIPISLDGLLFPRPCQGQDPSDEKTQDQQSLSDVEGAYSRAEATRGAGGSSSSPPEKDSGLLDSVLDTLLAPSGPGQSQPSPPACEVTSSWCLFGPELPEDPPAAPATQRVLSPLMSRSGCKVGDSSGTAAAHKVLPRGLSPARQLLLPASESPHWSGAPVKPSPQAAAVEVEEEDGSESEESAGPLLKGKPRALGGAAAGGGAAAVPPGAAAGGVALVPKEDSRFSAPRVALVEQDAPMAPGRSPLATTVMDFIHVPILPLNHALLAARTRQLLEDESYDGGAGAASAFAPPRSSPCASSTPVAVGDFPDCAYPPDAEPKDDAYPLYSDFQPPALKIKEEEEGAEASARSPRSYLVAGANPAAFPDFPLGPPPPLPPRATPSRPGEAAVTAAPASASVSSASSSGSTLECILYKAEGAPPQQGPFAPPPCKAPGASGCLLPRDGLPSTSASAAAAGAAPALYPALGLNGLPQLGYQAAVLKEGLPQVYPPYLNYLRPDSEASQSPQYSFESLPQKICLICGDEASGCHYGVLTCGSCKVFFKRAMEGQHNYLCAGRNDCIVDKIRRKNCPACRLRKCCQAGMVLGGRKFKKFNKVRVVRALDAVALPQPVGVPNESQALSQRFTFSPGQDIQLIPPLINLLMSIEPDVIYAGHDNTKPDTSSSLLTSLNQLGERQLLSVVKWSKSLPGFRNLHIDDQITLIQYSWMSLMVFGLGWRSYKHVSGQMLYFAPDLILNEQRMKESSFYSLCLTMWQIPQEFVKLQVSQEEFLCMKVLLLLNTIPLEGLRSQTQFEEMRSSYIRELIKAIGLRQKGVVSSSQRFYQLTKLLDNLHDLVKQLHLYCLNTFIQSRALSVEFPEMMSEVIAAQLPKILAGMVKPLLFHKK
# Glucocorticoid receptor [3] = biological target: T1, Glucocorticoid receptor; assay: Transrepression activity at glucocorticoid receptor in HFF assessed as inhibition of IL-1-induced IL-6 production after 18 to 24 hrs by ELISA; format: cell-based
# Glucocorticoid receptor [4] = biological target: T1, Glucocorticoid receptor; assay: Binding affinity to glucocorticoid receptor expressed in baculovirus-infected insect cells using tetramethylrhodamine labeled Dexamethasone by fluorescence polarization microplate assay
# [5] = biological target: T3, Mineralocorticoid receptor (Homo sapiens, UniProt P08235); assay: Binding affinity to mineralocorticoid receptor expressed in baculovirus-infected insect cells using tetramethylrhodamine labeled Dexamethasone by fluorescence polarization microplate assay
# T3 sequence (P08235 whole entry): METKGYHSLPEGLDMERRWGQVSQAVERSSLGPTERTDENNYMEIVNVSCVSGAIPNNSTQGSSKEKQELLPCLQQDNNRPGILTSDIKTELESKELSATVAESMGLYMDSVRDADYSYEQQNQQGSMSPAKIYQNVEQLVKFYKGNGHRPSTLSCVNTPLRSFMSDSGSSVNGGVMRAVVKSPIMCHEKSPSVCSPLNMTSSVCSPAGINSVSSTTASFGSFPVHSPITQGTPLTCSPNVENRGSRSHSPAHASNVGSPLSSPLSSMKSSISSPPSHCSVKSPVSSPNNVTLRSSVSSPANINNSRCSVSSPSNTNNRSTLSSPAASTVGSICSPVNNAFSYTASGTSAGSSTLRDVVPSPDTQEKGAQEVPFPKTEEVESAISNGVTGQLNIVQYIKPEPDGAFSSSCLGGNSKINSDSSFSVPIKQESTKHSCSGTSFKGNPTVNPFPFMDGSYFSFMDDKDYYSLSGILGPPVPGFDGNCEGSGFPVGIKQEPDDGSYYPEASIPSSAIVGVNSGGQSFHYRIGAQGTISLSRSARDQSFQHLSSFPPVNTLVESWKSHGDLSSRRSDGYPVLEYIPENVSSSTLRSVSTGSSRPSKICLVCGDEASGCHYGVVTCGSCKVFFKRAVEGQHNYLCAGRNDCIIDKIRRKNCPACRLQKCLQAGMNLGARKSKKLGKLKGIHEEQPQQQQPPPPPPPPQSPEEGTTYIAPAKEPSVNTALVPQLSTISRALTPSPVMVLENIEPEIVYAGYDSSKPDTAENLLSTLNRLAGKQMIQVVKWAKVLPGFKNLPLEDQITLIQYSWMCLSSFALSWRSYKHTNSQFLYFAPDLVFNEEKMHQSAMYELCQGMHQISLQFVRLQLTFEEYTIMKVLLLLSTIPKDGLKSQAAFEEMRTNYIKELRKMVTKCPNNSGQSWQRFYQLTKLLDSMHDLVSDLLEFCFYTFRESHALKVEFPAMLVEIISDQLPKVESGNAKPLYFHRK
Structure (SMILES),IC50 (Glucocorticoid receptor [1]),EC50 (Glucocorticoid receptor [2]),IC50 (Progesterone receptor),IC50 (Glucocorticoid receptor [3]),IC50 (Glucocorticoid receptor [4]),IC50 [5]
CC(C)(CC(O)(Cc1cc2ccncc2[nH]1)C(F)(F)F)c1cccc2c1OCC2 (stereo not drawn),> 2000 nM,30 nM,130 nM,15 nM,4.5 nM,780 nM
COc1ccc(F)cc1C(C)(C)CC(O)(Cc1cc2ccccc2[nH]1)C(F)(F)F (stereo not drawn),,,250 nM,6.6 nM,21 nM,380 nM
COc1ccc(F)cc1C(C)(C)CC(O)(Cc1cc2ccccn2n1)C(F)(F)F (stereo not drawn),,,> 2000 nM,> 2000 nM,690 nM,> 2000 nM
CC(C)(CC(O)(Cc1cc2ccncc2[nH]1)C(F)(F)F)c1cc(F)cc2c1OCC2 (stereo not drawn),> 2000 nM,,450 nM,9.3 nM,2.3 nM,280 nM
C[C@@H]1C[C@H]2[C@@H]3CCC4=CC(=O)C=C[C@]4(C)[C@@]3(F)[C@@H](O)C[C@]2(C)[C@@]1(O)C(=O)CO [DEXAMETHASONE],,,> 2000 nM,,,
COc1ccc(F)cc1C(C)(C)CC(O)(Cc1cc2ccncc2[nH]1)C(F)(F)F (stereo not drawn),,,> 2000 nM,9.8 nM,4.4 nM,580 nM
COc1ccc(-c2cccnc2)cc1C(C)(C)CC(O)(Cc1cc2ccncc2[nH]1)C(F)(F)F (stereo not drawn),,> 2000 nM,> 2000 nM,30 nM,8 nM,390 nM
COc1ccc(F)cc1C(C)(C)CC(O)(Cc1cc2ccncc2s1)C(F)(F)F (stereo not drawn),,,1300 nM,35 nM,7.1 nM,220 nM
COc1ccc(F)cc1C(C)(C)CC(O)(Cc1cc2ccncc2o1)C(F)(F)F (stereo not drawn),,,> 2000 nM,> 2000 nM,22 nM,1050 nM
COc1ccc(-c2cncnc2)cc1C(C)(C)CC(O)(Cc1cc2ccncc2[nH]1)C(F)(F)F (stereo not drawn),,,> 2000 nM,50 nM,27 nM,> 2000 nM
COc1ccc(F)cc1C(C)(C)CC(O)(Cc1cc2cccnc2[nH]1)C(F)(F)F (stereo not drawn),,,> 2000 nM,> 2000 nM,21 nM,910 nM
COc1ccc(F)cc1C(C)(C)CC(O)(Cn1ccc2ncccc21)C(F)(F)F (stereo not drawn),,,200 nM,2.8 nM,2 nM,48 nM
COc1ccc(F)cc1C(C)(C)CC(O)(Cc1cc2cnccc2[nH]1)C(F)(F)F (stereo not drawn),,,> 2000 nM,8.2 nM,7.3 nM,320 nM
CC(C)(CC(O)(Cc1cc2ccncc2[nH]1)C(F)(F)F)c1cc(-c2cccnc2)ccc1O (stereo not drawn),> 2000 nM,,> 2000 nM,23 nM,6.6 nM,230 nM
COc1ccc(F)cc1C(C)(C)C[C@](O)(Cc1cc2ccncc2[nH]1)C(F)(F)F,,,> 2000 nM,430 nM,1700 nM,> 2000 nM
CC(C)(CC(O)(Cc1cc2ccncc2[nH]1)C(F)(F)F)c1cccc(F)c1 (stereo not drawn),,> 2000 nM,8 nM,99 nM,23 nM,> 2000 nM
CC(C)(CC(O)(Cc1cc2ccncc2[nH]1)C(F)(F)F)c1cc(-c2ccccc2)ccc1O (stereo not drawn),47 nM,45 nM,1300 nM,15 nM,11 nM,160 nM
COc1ccc(-c2ccccc2)cc1C(C)(C)CC(O)(Cc1cc2ccncc2[nH]1)C(F)(F)F (stereo not drawn),,69 nM,1200 nM,40 nM,12 nM,480 nM
CC(C)(C[C@@](O)(Cc1cc2cnccc2[nH]1)C(F)(F)F)c1cc(F)ccc1O,56 nM,45 nM,1900 nM,3 nM,4.7 nM,220 nM
CC(C)(CC(O)(Cc1cc2ccncc2[nH]1)C(F)(F)F)c1cc(-c2cncnc2)ccc1O (stereo not drawn),,,> 2000 nM,21 nM,19 nM,1700 nM
COc1ccc(F)cc1C(C)(C)CC(O)(Cc1cc2ncccc2[nH]1)C(F)(F)F (stereo not drawn),,,> 2000 nM,120 nM,23 nM,> 2000 nM
COc1ccc(F)cc1C(C)(C)CC(O)(Cc1cc2cc[n+]([O-])cc2[nH]1)C(F)(F)F (stereo not drawn),,,> 2000 nM,,860 nM,> 2000 nM
COc1ccc(F)cc1C(C)(C)CC(O)(Cn1ccc2ccncc21)C(F)(F)F (stereo not drawn),,,> 2000 nM,,1400 nM,> 2000 nM
